# Source: patent US5760041A, “4-aminoquinazoline EGFR Inhibitors” (American Cyanamid Company, priority 1997, dated 1998)
# Where two headings read alike, the source gives them in different places.
# Legend:
# Neu-3T3 cells = experiment: Inhibition of cell growth, [3H]-thymidine incorporation, Neu-3T3; assay type: cell-based; settings: Mus musculus, read-out: IC50, NEU-3T3
# Procedure: (§1) Representative compounds of this invention were evaluated for their ability to inhibit the growth of the cell lines described below in vitro. The inhibition is quantitated by measuring the decrease in the incorporation of radio-labeled thymidine when the cells are grown in the presence of the inhibitor. A431 and SKBR3 cell lines are obtained from American Type Culture Collection, Rockville, Md. […] NHEK cells are obtained from Clonetics (San Diego, Calif.). Cells were routinely grown in a humidified incubator in 5% CO2 in air.
# (§2) Cells were seeded at 10,000 cells/well in 96 well plates in complete media and allowed to grow to log phase. […] After overnight incubation in low serum (or EGF lacking) media, the compounds to be evaluated were added and cells remained in the presence of compounds for 48 to 72 hours. Media with test compound was then removed and complete media was added back. The cells were allowed to grow for 18 hours. This is followed by incubation in [^3 H]thymidine (1mCi/ml in serum/EGF media) for 4 hours. Cells were lysed in 0.5M NaOH for at least 30 min at 37° C. and radioactivity analyzed.
# (§3) The cell growth inhibition data is provided below in TABLE 3. […] The % inhibition of the compound evaluated was determined for at least three different concentrations and the IC50 value evaluated from the dose response curve.
# (§4) CPM(control) is in units of counts per minute and is a number expressing the amount of [^3 H]thymidine incorporated onto the DNA when cells are grown in the absence of test compound as measured by liquid scintillation counting.
# NHEK cells = experiment: Inhibition of cell growth, [3H]-thymidine incorporation, NHEK; assay type: cell-based; settings: Homo sapiens, read-out: IC50, NHEK
# Procedure: as §1, §2, §3, §4
# [1] = target: T1, Epidermal Growth Factor Receptor Kinase (EGF-R) (Homo sapiens, UniProt P00533); experiment: Inhibition of Epidermal Growth Factor Receptor Kinase (EGF-R), phosphorylation of peptide substrate RR-SRC; assay type: biochemical; settings: A431 membrane extract; average of number of tests
# T1 construct: The enzyme was obtained as a membrane extract of A431 cells; (cells); host or cells: A431 cells (membrane extract)
# Procedure: The % inhibition of the test compound was determined for at least three different concentrations and the IC50 value was evaluated from the dose response curve.
# The CPM values were corrected for the background counts produced by ATP in the absence of the enzymatic reaction.
# [2] = tested on: human epidermoid tumors (A431); experiment: In vivo inhibition of the growth of human epidermoid tumors (A431) in mice; settings: for inhibition of tumor growth in vivo (in words): summary of Tables 4-7
# Procedure: BALB/c nu/nu female mice (Charles River, Wilmington, Mass.) were used in the in vivo standard pharmacological test procedures. […] When tumors attained a mass of between 100 and 150 mg, the mice were randomized into treatment groups (day zero). Mice were treated IP once a day either on days 1, 5, and 9 or on days 1 through 10 post staging with doses of either 80, 40 or 20 mg/kg/dose of the compound to be evaluated in 0.2% Klucel. Control animals received no drug. Tumor mass was determined every 7 days [(length×width^2)/2] for 28 days post staging. Relative tumor growth (Mean tumor mass on day 7, 14, 21, and 28 divided by the mean tumor mass on day zero) is determined for each treatment group. The % T/C (Tumor/Control) is determined by dividing the relative tumor growth of the treated group by the relative tumor growth of the placebo group and multiplying by 100.
# SKBR3 cells = experiment: Inhibition of cell growth, [3H]-thymidine incorporation, SKBR3; assay type: cell-based; settings: Homo sapiens
# Procedure: Representative compounds of this invention were evaluated for their ability to inhibit the growth of the cell lines described below in vitro. The inhibition is quantitated by measuring the decrease in the incorporation of radio-labeled thymidine when the cells are grown in the presence of the inhibitor. A431 and SKBR3 cell lines are obtained from American Type Culture Collection, Rockville, Md. […] NHEK cells are obtained from Clonetics (San Diego, Calif.). Cells were routinely grown in a humidified incubator in 5% CO2 in air. […] Cells were seeded at 10,000 cells/well in 96 well plates in complete media and allowed to grow to log phase. […] After overnight incubation in low serum (or EGF lacking) media, the compounds to be evaluated were added and cells remained in the presence of compounds for 48 to 72 hours. Media with test compound was then removed and complete media was added back. The cells were allowed to grow for 18 hours. This is followed by incubation in [^3 H]thymidine (1mCi/ml in serum/EGF media) for 4 hours. Cells were lysed in 0.5M NaOH for at least 30 min at 37° C. and radioactivity analyzed. The cell growth inhibition data is provided below in TABLE 3. […] The % inhibition of the compound evaluated was determined for at least three different concentrations and the IC50 value evaluated from the dose response curve. […] CPM(control) is in units of counts per minute and is a number expressing the amount of [^3 H]thymidine incorporated onto the DNA when cells are grown in the absence of test compound as measured by liquid scintillation counting.
# A431 cells = experiment: Inhibition of cell growth, [3H]-thymidine incorporation, A431; assay type: cell-based; settings: Homo sapiens, A-431, read-out: IC50, A431
# Procedure: as §1
# Cells were seeded at 10,000 cells/well in 96 well plates in complete media and allowed to grow to log phase. […] After overnight incubation in low serum (or EGF lacking) media, the compounds to be evaluated were added and cells remained in the presence of compounds for 48 to 72 hours. […] Cells were lysed in 0.5M NaOH for at least 30 min at 37° C. and radioactivity analyzed.
# as §3, §4
# [3] = Table 5, 20 mg/kg/dose IP, days 1 through 15
# [4] = Table 6, 20 mg/kg IP, day 1 through 10
# [5] = Table 6, 20 mg/kg IP, day 1 through 10, * p < 0.01
# [6] = Table 6, 80 mg/kg IP, days 1, 5, and 9
# [7] = Table 6, 80 mg/kg IP, days 1, 5, and 9, * p < 0.01
# [8] = Table 4, 20 mg/kg/dose IP, days 1, 5, 9
# [9] = Table 4, 20 mg/kg/dose IP, days 1 through 10
# [10] = Table 4, 40 mg/kg/dose IP, days 1, 5, 9
# [11] = Table 4, 80 mg/kg/dose IP, days 1, 5, 9
# [12] = Table 7, 80 mg/kg IP, days 1, 5, and 9
# [13] = Table 7, 80 mg/kg IP, days 1, 5, and 9, * p < 0.01
# [14] = SK-BR-3, 48 to 72 hours with compound, read-out: IC50, SKBR3
# [15] = Table 7, 20 mg/kg IP, days through 10
# T1 sequence (P00533 25-1210): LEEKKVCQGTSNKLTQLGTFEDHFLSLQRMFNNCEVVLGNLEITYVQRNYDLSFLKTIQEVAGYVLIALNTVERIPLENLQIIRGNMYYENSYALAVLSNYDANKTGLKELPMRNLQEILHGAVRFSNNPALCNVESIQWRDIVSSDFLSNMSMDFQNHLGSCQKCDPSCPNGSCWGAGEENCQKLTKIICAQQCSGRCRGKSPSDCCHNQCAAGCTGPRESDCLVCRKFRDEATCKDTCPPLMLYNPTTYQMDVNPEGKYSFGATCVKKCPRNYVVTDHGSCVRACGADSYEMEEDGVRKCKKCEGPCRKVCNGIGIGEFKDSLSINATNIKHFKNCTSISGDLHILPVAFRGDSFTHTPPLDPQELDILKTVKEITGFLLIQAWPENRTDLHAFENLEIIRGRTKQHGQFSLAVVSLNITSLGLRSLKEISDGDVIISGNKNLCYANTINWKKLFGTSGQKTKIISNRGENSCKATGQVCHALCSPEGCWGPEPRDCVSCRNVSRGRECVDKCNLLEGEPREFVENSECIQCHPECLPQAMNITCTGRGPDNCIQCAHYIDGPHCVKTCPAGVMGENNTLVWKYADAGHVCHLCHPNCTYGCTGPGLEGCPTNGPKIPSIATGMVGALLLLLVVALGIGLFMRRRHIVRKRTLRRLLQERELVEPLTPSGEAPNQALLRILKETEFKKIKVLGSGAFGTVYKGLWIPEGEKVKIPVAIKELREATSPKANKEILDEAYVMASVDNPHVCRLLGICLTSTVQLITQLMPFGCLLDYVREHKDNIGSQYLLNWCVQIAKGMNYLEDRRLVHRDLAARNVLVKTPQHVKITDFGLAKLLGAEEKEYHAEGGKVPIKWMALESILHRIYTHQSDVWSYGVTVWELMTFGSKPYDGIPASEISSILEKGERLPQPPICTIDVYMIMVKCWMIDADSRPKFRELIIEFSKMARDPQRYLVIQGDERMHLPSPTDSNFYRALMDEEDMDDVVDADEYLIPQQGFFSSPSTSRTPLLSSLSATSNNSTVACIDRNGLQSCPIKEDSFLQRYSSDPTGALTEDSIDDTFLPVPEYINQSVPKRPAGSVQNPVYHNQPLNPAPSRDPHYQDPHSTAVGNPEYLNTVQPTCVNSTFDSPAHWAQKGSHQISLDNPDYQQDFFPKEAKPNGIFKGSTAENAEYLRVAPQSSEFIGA
# T1 sequence (P01133 971-1023 partner limits assumed): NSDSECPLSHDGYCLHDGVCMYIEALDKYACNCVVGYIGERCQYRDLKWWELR
smiles,measurement,setting,value
"O=C(O)/C=C/C(=O)Nc1ccc2ncnc(Nc3cccc(Br)c3)c2c1 [Example 10, 4-[[4-[(3-Bromophenyl)amino]-6-quinazolinyl]amino]-4-oxo-(E)-2-butenoic acid]",IC50,Neu-3T3 cells,15000 nM
"O=C(O)/C=C\C(=O)Nc1ccc2ncnc(Nc3cccc(Br)c3)c2c1 [Example 4, 4-[[4-[(3-Bromophenyl)amino]-6-quinazolinyl]amino]-4-oxo-(Z)-2-butenoic acid]",IC50,NHEK cells,170 nM
"O=C(C#Cc1ccccc1)Nc1ccc2ncnc(Nc3cccc(Br)c3)c2c1 [Example 14, N-[4-[(3-bromophenyl)amino]-6-quinazolinyl]-(3-phenyl-2-propynamide)]",IC50,[1],1000 nM
"COc1cc2ncnc(Nc3cccc(Br)c3)c2cc1OC [N-(3-bromophenyl)-6,7-dimethoxy-4-quinazolinamine, reference compound]",inhibition of tumor growth in vivo (in words),[2]; A431 tumors in mice,devoid of antineoplastic activity
same,% T/C Day 7,[2]; [3],95%
same,% T/C Day 14,[2]; [3],116%
same,% T/C Day 21,[2]; [3],128%
same,% T/C Day 28,[2]; [3],140%
same,RTG Day 7,[2]; [3],3.03
same,RTG Day 14,[2]; [3],6.58
same,RTG Day 21,[2]; [3],10.5
same,RTG Day 28,[2]; [3],14.47
same,S/T (No. Survivors/No. Treated on Day +28),[2]; [3],15/15
"C=CC(=O)Nc1cc2c(Nc3cccc(C)c3)ncnc2cc1F [Comparator A, N-[4-[(3-methylphenyl)amino]-6-quinazolinyl]-7-fluoro-2-propenamide, reference compound]",activity relative to the compound of Example 9 (in words),"[2]; A431 tumors in mice, Tables 6 and 7",substantially less active than the compound of Example 9
same,inhibition of tumor growth in vivo (in words),[2]; A431 tumors in mice,failed to significantly reduce tumor growth at both doses tested
same,RTG Day 7,[2]; [4],4.82
same,RTG Day 14,[2]; [4],7.36
same,RTG Day 21,[2]; [4],8.75
same,S/T (No. Survivors/No. Treated on Day +21),[2]; [4],9/10
same,% T/C Day 7,[2]; [5],87%
same,% T/C Day 14,[2]; [5],63%
same,% T/C Day 21,[2]; [5],56%
same,RTG Day 7,[2]; [6],3.39
same,RTG Day 14,[2]; [6],5.60
same,RTG Day 21,[2]; [6],7.68
same,S/T (No. Survivors/No. Treated on Day +21),[2]; [6],10/10
same,% T/C Day 7,[2]; [7],61%
same,% T/C Day 14,[2]; [7],48%
same,% T/C Day 21,[2]; [7],48%
"CC#CC(=O)Nc1ccc2ncnc(Nc3cccc(Br)c3)c2c1 [Example 9, N-[4-[(3-Bromophenyl)amino]-6-quinazolinyl]-2-butynamide]",inhibition of tumor growth in vivo (in words),[2]; A431 tumors in mice,significantly (p<0.01) inhibited human epidermoid tumor growth in vivo
same,% T/C Day 7,[2]; [8],47%
same,% T/C Day 16,[2]; [8],34%
same,% T/C Day 21,[2]; [8],38%
same,% T/C Day 28,[2]; [8],41%
same,RTG Day 7,[2]; [8],1.72
same,RTG Day 16,[2]; [8],2.69
same,RTG Day 21,[2]; [8],4.33
same,RTG Day 28,[2]; [8],6.18
same,S/T (No. Survivors/No. Treated on Day +28),[2]; [8],5/5
same,% T/C Day 7,[2]; [9],20%
same,% T/C Day 16,[2]; [9],13%
same,% T/C Day 21,[2]; [9],11%
same,% T/C Day 28,[2]; [9],17%
same,RTG Day 7,[2]; [9],0.75
same,RTG Day 16,[2]; [9],1.01
same,RTG Day 21,[2]; [9],1.25
same,RTG Day 28,[2]; [9],2.53
same,S/T (No. Survivors/No. Treated on Day +28),[2]; [9],5/5
same,% T/C Day 7,[2]; [10],40%
same,% T/C Day 16,[2]; [10],28%
same,% T/C Day 21,[2]; [10],27%
same,% T/C Day 28,[2]; [10],27%
same,RTG Day 7,[2]; [10],1.48
same,RTG Day 16,[2]; [10],2.23
same,RTG Day 21,[2]; [10],3.05
same,RTG Day 28,[2]; [10],4.04
same,S/T (No. Survivors/No. Treated on Day +28),[2]; [10],5/5
same,% T/C Day 7,[2]; [11],18%
same,% T/C Day 16,[2]; [11],11%
same,% T/C Day 21,[2]; [11],9%
same,% T/C Day 28,[2]; [11],9%
same,RTG Day 7,[2]; [11],0.71
same,RTG Day 16,[2]; [11],0.91
same,RTG Day 21,[2]; [11],1.07
same,RTG Day 28,[2]; [11],1.36
same,S/T (No. Survivors/No. Treated on Day +28),[2]; [11],5/5
same,% T/C Day 7,[2]; [3],35%
same,% T/C Day 14,[2]; [3],22%
same,% T/C Day 21,[2]; [3],19%
same,% T/C Day 28,[2]; [3],22%
same,RTG Day 7,[2]; [3],1.11
same,RTG Day 14,[2]; [3],1.26
same,RTG Day 21,[2]; [3],1.51
same,RTG Day 28,[2]; [3],2.55
same,S/T (No. Survivors/No. Treated on Day +28),[2]; [3],14/15
same,RTG Day 7,[2]; [4],0.79
same,RTG Day 14,[2]; [4],1.39
same,RTG Day 21,[2]; [4],2.55
same,S/T (No. Survivors/No. Treated on Day +21),[2]; [4],10/10
same,% T/C Day 7,[2]; [5],14%
same,% T/C Day 14,[2]; [5],12%
same,% T/C Day 21,[2]; [5],16%
same,RTG Day 7,[2]; [6],1.25
same,RTG Day 14,[2]; [6],2.50
same,RTG Day 21,[2]; [6],3.77
same,S/T (No. Survivors/No. Treated on Day +21),[2]; [6],10/10
same,% T/C Day 7,[2]; [7],18%
same,% T/C Day 14,[2]; [7],21%
same,% T/C Day 21,[2]; [7],24%
same,RTG Day 7,[2]; [12],0.89
same,RTG Day 14,[2]; [12],1.50
same,RTG Day 21,[2]; [12],2.44
same,RTG Day 28,[2]; [12],3.45
same,S/T (No. Survivors/No. Treated on Day +28),[2]; [12],5/5
same,% T/C Day 7,[2]; [13],25%
same,% T/C Day 14,[2]; [13],27%
same,% T/C Day 21,[2]; [13],42%
same,% T/C Day 28,[2]; [13],45%
same,IC50,"SKBR3 cells; SK-BR-3, read-out: IC50, SKBR3",1060 nM
same,IC50,NHEK cells,2 nM
"CC(C)=CC(=O)Nc1ccc2ncnc(Nc3cccc(Br)c3)c2c1 [Example 6, N-[4-[(3-Bromophenyl)amino]-6-quinazolinyl]-3-methyl-2-butenamide]",IC50,Neu-3T3 cells; 48 to 72 hours with compound,> 50000 nM
same,IC50,SKBR3 cells; [14],> 50000 nM
"CCCC(=O)Nc1ccc2ncnc(Nc3cccc(Br)c3)c2c1 [Comparator B, N-[4-[(3-bromophenyl)amino]-6-quinazolinyl]-butanamide, reference compound]",inhibition of tumor growth in vivo (in words),[2]; A431 tumors in mice,failed to significantly reduce tumor growth at both doses tested
same,RTG Day 7,[2]; [15],2.90
same,RTG Day 14,[2]; [15],4.19
same,RTG Day 21,[2]; [15],5.62
same,RTG Day 28,[2]; [15],8.04
same,S/T (No. Survivors/No. Treated on Day +28),[2]; [15],5/5
same,RTG Day 7,[2]; [12],3.37
same,RTG Day 14,[2]; [12],5.43
same,RTG Day 21,[2]; [12],6.21
same,RTG Day 28,[2]; [12],10.26
same,S/T (No. Survivors/No. Treated on Day +28),[2]; [12],5/5
"CC=CC=CC(=O)Nc1ccc2ncnc(Nc3cccc(Br)c3)c2c1 [Example 11, N-[4-[(3-Bromophenyl)amino]-6-quinazolinyl]-2,4-hexadienamide]",IC50,Neu-3T3 cells; 48 to 72 hours with compound,400 nM
same,IC50,[1],56 nM
same,IC50,A431 cells,800 nM
same,IC50,SKBR3 cells; [14],4000 nM
same,IC50,NHEK cells,850 nM
